Results reported in publication PMC8002023, “3D Pharmacophore-Based Discovery of Novel KV10.1 Inhibitors with Antiproliferative Activity” (Cancers, 2021).
Like-named read-outs stand apart in the source and are kept apart here.

Tests used:
[1] = biological target: T1, KV10.1 (Homo sapiens, UniProt O95259); experiment: Whole-cell patch clamp on HEK-293 cells stably expressing KV10.1; format: cell-based; conditions: for inhibition at 10 µM: HEK293, mean ± standard error (or range); for KV10.1 inhibitory activity: SAR discussion of Table 3 (10 μM)
T1 construct: expressed in transfected cells
T1 sequence (O95259 1-962 isoform O95259-2): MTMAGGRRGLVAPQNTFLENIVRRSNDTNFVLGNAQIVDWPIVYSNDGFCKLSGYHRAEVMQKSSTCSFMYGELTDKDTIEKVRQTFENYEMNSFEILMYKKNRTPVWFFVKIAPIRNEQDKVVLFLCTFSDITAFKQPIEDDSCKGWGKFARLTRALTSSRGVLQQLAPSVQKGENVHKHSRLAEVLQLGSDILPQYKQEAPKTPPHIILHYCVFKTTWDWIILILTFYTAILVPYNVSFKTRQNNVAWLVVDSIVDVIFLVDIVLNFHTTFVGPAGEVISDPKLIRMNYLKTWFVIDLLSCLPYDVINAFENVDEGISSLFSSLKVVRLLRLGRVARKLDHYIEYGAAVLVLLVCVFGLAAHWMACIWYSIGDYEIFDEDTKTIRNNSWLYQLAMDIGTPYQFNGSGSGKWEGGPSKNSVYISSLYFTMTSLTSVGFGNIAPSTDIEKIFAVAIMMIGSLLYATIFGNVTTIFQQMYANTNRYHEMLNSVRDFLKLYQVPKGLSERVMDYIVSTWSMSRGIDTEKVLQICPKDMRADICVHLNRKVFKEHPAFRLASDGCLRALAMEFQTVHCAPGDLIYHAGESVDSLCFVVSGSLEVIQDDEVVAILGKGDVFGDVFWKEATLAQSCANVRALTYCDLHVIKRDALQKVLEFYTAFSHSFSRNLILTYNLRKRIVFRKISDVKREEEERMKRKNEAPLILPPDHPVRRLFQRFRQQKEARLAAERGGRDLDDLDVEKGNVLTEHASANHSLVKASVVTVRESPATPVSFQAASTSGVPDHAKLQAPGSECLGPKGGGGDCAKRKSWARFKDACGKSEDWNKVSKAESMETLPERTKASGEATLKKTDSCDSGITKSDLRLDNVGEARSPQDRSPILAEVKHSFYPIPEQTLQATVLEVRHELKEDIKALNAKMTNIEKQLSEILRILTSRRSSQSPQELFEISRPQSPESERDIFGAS

[2] = biological target: T1, KV10.1; experiment: as above; format: cell-based; conditions: for inhibition at 50 µM: HEK293, compound concentration 50 μM, stimuli to +40 mV, mean ± standard error, read-out: Effect on Kv10.1 (% Inhibition)
Description: (§1) Whole-cell patch clamp experiments were performed on stably transfected HEK-293 cells. The cells were grown on fibronectin-coated glass coverslips in DMEM supplemented with 10% FCS and 300 µg/mL Zeocin. Experiments were performed at room temperature under continuous perfusion. The extracellular solution contained (mM) 160 NaCl, 2.5 KCl, 2 CaCl2, 1 MgCl2, 10 Hepes/NaOH, pH 7.4, 8 glucose. For the experiments determining conductance–voltage relationships, tail currents were made visible by substituting 60 mM NaCl by KCl ([…], 100 NaCl). Pipettes were pulled from #1 glass capillaries (WPI) to resistances of 1–3 MΩ when loaded with the intracellular solution (100 KCl, 45 N-methyl-D-glucamine, 10 1,2-bis(o-aminophenoxy)ethane-N,N,N′,N′-tetraacetic acid (BAPTA), 10 Hepes pH 7.35). Data acquisition was performed using a EPC10 Plus amplifier (HEKA Elektronik) and Patch Master software. Drug application was performed using an 8-channel fast solution exchanger (ALA). All compounds were dissolved in DMSO to a final concentration of 10 mM. 0.5% DMSO in extracellular solution served as control. KV10.1 currents were elicited by 500 ms depolarisations to +40 mV under continuous perfusion with the compound-containing or control solution. hERG current amplitudes were measured as the peak tail current during a 4 s repolarization to −40 mV after a depolarising pulse to +20 mV lasting for 2 s.
The nine selected in silico hits were tested by manual patch-clamp on a HEK293 cell line stably expressing KV10.1 [33] at a compound concentration of 50 μM (Table 1). Compound activity was tested by determining the current amplitude elicited by repetitive stimuli to +40 mV from a holding potential of −80 mV. […] The hit compound ZVS-08 represents a new structural class of KV10.1 inhibitors with diarylamine structure and has a unique structure among the acquired virtual screening hits. […] The most notable change from the purpurealidin analogues is the replacement of the hydrogen bond acceptor group of the amide bond with the oxygen atom of the nitro group of ZVS-08.

[3] = biological target: T2, hERG (Homo sapiens, UniProt Q12809); experiment: Whole-cell patch clamp on stably transfected HEK-293 cells, hERG tail current; format: cell-based; conditions: peak tail current at −40 mV after +20 mV
T2 construct: expressed in transfected cells
T2 sequence (Q12809 whole entry): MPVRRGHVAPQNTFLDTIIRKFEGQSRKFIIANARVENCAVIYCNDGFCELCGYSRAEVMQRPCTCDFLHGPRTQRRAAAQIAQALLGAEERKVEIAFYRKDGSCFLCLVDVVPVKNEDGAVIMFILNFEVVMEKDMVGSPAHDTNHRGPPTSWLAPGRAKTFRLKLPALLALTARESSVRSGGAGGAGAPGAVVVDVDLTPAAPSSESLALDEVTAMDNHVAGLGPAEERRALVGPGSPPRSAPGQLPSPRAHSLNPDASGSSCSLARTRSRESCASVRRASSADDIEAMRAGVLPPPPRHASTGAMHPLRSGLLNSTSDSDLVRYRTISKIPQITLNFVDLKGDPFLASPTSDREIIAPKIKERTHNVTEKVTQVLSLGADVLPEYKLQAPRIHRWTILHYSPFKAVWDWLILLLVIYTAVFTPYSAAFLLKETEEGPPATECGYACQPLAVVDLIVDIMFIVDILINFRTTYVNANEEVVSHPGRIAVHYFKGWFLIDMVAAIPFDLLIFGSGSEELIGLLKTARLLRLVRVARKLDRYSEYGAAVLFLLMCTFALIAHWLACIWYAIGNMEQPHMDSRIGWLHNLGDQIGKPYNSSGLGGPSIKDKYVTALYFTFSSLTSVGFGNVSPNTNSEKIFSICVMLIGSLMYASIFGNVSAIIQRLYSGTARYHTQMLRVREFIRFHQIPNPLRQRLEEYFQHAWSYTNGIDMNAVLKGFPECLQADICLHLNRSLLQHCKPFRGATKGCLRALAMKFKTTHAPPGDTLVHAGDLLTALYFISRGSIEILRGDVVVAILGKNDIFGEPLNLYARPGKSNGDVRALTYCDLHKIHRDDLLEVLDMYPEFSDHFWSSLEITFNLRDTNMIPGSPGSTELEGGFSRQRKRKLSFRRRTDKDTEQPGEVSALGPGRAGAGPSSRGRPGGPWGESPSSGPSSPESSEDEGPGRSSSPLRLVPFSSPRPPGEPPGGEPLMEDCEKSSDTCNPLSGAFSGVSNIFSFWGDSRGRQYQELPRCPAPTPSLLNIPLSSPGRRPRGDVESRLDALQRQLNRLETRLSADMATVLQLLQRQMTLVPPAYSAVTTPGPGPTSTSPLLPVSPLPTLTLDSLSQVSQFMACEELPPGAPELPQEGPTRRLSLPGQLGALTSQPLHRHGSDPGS
Description: as §1

[4] = test system: MCF-7 cells; experiment: Cell growth in 2D culture (Incucyte confluence, 72 h), MCF-7; format: cell-based; conditions: high KV10.1 and low hERG expression
Description: (§2) Cell lines MCF-7 (DSMZ ACC 115), PANC-1 (DSMZ ACC 783), and hTERT-RPE1 (ATCC CRL 4000) were grown in the media recommended by the cell provider in a humidified atmosphere at 5% CO2 and 37 °C. For cell growth experiments, 10^4 cells/well were seeded in 96-well flat bottom culture plates (Corning) and allowed to grow for 24 h. The compounds were then added in the corresponding growth medium, and the plate was imaged every hour for 72 h (two images per well and eight wells per condition in two independent experiments for compound 8 and five for ZVS-08 and compound 1) in an Incucyte system (Sartorius/Essen biosciences). Culture confluence was determined in the phase contrast images and is expressed as percent confluence per well. The growth was then normalised to the value in the absence of compounds.
KV10.1 inhibitors with a favourable pharmacological profile are promising candidates for cancer therapy. To investigate the activity of the new compounds on cancer cells proliferation, compounds ZVS-08, 1 and 8 were tested on MCF-7, a breast cancer cell line showing high KV10.1 expression and low hERG expression, and on Panc1, a pancreatic cancer cell line with undetectable KV10.1 expression and high level of hERG expression. hTERT-RPE1 cells served as a non-cancer cell line. hTERT-RPE1 cells show transient physiological expression of Kv10.1 that begins during the G2 phase of the cell cycle and extends through mitosis as present in normal cells. Different concentrations of the compounds were added to the culture medium and the growth of the cell was monitored over 72 h (Figure 14).

[5] = test system: Panc1 cells; experiment: Cell growth in 2D culture (Incucyte confluence, 72 h), Panc1; format: cell-based; conditions: Homo sapiens, PANC-1, no KV10.1 and high hERG expression
Description: as §2
KV10.1 inhibitors with a favourable pharmacological profile are promising candidates for cancer therapy. […] Different concentrations of the compounds were added to the culture medium and the growth of the cell was monitored over 72 h (Figure 14).

[6] = test system: Colo357 tumour spheroids; experiment: Apoptosis (caspase 3/7 reporter) in tumour spheroids; format: cell-based; conditions: 50 µM, caspase reporter fluorescence over 72 h, 8.9 µM cycloheximide as sensitizer
Description: Spheroids were cultured in round bottom ultra-low attachment 96-well plates (Corning) at a density of 5000 cells/well in 2% Matrigel (Corning) and centrifuged at 1000× g for 10 min. Spheroid formation was monitored continuously in the Incucyte system and treatments were added once spheroids were formed. As apoptosis sensitizer, 8.9 µM cycloheximide was added to controls and treated spheroids. Caspase 3/7 green reagent (Sartorius; 1:1000) was used as recommended by the manufacturer. Caspase 3/7 reagent substrate crosses the cell membrane and its cleavage by activated caspase-3/7 results in the release of a DNA dye and fluorescent staining of nuclear DNA.
To test the ability of the compounds to inhibit tumour progression in a more predictive system, we performed experiments on tumour spheroids of the pancreatic cancer cell line Colo357, which grows efficiently in this culture modality. The cells were seeded in the presence of Matrigel (see methods), allowed to form spheroids, and the compounds (50 µM) were added to the growth medium. The control contained the same amount of the vehicle (0.5% DMSO). Apoptosis was monitored by addition of a fluorescent […] activity reporter at the same time as the compounds. Cleavage of the reporter by caspase results in green florescence, and the intensity of the fluorescence was recorded over 72 h.

[7] = biological target: T1, KV10.1; parameters: method as in PMID 15365094; conditions: open-channel blocker; cited from earlier work

| inhibition at 10 µM [1] [%] | inhibition at 50 µM [2] [%] | SMILES | other results |
| --- | --- | --- | --- |
| 36.6 ± 19.9 |  | CN(C)CCCOc1ccc(Nc2ccccc2[N+](=O)[O-])cc1 [Compound 4] |  |
| 87.3 ± 4.6 |  | CN(C)CCCOc1ccc(Nc2ccc(C(F)(F)F)cc2[N+](=O)[O-])cc1 [Compound 1] | IC50 ([2]; HEK-293, 500 ms depolarisation to +40 mV, read-out: IC50 Kv10.1): 740 nM; IC50 [3]: 207 nM; IC50 ([4]; Homo sapiens, MCF7, 72 h): 5480 nM; IC50 [4]: ~5000 nM; IC50 [5]: > 30000 nM; apoptosis induction in tumour spheroids [6]: required longer time, but reached similar efficacy |
|  | -1.14 ± 3.47 | CN1CCOC(c2nccc(CNC(=O)Cc3cccs3)n2)C1 (stereo not drawn) [ZVS-03] |  |
|  | 8.84 ± 4.92 | CN1CCN(c2cc(CNC(=O)Cc3noc4ccccc34)ccn2)CC1 [ZVS-05] |  |
| 57 ± 21.7 |  | CN(C)CC(O)COc1ccc(Nc2ccc(C(F)(F)F)cc2N)cc1 (stereo not drawn) [Compound 10] |  |
| 23.9 ± 26.8 |  | O=[N+]([O-])c1ccccc1Nc1ccc(OCC(O)CN2CCOCC2)cc1 (stereo not drawn) [Compound 2] | melting point: 95.6 to 97.5 °C |
| 57.5 ± 28.4 |  | CN(C)CC(O)COc1ccc(Nc2ccc(C(F)(F)F)cc2)cc1 (stereo not drawn) [Compound 6] | melting point: 76.3 to 79.1 °C |
|  | 0.15 ± 1.67 | CN(C)Cc1cncc(C2CCCN2C(=O)c2ccc3c(c2)CCC3)n1 (stereo not drawn) [ZVS-09] |  |
|  | -7.5 ± 4.65 | CN1CCN(c2cc(CNC(=O)c3cc(=O)[nH]c4ccccc34)ccn2)CC1 [ZVS-06] |  |
|  | 4.68 ± 1.63 | COc1ccc(F)cc1C(=O)NCc1cnc(C2CCN(C)C2)[nH]1 (stereo not drawn) [ZVS-07] |  |
| 2.53 ± 11.7 |  | O=[N+]([O-])c1cc(C(F)(F)F)ccc1Nc1ccc(OCC(O)CNc2ccccc2)cc1 (stereo not drawn) [Compound 5] |  |
|  |  | COc1ccc(CCN2CCC(Nc3nc4ccccc4n3Cc3ccc(F)cc3)CC2)cc1 [astemizole] | IC50 [7]: ~200 nM |
|  | -1.13 ± 4.5 | Cc1cccnc1C(=O)NCc1cnc(CCC2CCN(C)CC2)cn1 [ZVS-01] |  |
| 21 ± 30.3 |  | CN(C)CC(O)COc1ccc(Nc2ccccc2[N+](=O)[O-])cc1 (stereo not drawn) [Compound 7] | melting point: 76.1 to 77.3 °C |
| 2 ± 7.45 |  | COC(=O)c1ccccc1Nc1ccc(OCC(O)CN(C)C)cc1 (stereo not drawn) [Compound 9] | KV10.1 inhibitory activity [1]: inactive |
| 16.6 ± 38.4 |  | CC(=O)NCC(O)COc1ccc(Nc2ccc(C(F)(F)F)cc2[N+](=O)[O-])cc1 (stereo not drawn) [Compound 12] |  |
|  | 5.03 ± 2.87 | CN1CCN(S(=O)(=O)c2ccc(CNC(=O)c3ccccc3)s2)CC1 [ZVS-02] |  |
| 22.1 ± 33.5 |  | CN(C)CC(O)COc1ccc(Nc2ccccc2)cc1 (stereo not drawn) [Compound 3] | melting point: 88 to 90.1 °C; KV10.1 inhibitory activity [1]: almost inactive |
|  | -0.86 ± 0.75 | O=C(CCN1CCOCC1)Nc1ccc(S(=O)(=O)Nc2cc(Cl)cc(Cl)c2)cc1 [ZVS-04] |  |
| 37.7 ± 7.13 |  | CN(C)CC(O)COc1ccc(Nc2ccccc2C(=O)O)cc1 (stereo not drawn) [Compound 11] | KV10.1 inhibitory activity [1]: inactive |
